Experimental data: US20200188394A1, “TREATMENT OF LIVER DISEASE” (UNIVERSITY OF NEWCASTLE UPON TYNE, priority 2016, published 2020)
Entries after “also recorded” stand apart in the source; their conditions may differ.

Legend:
Assay type in all cases: cell-based, rat
Gck mRNA = test: Relative Gck mRNA expression in hepatocytes (real-time RT-PCR); conditions: for Gck mRNA relative expression: 5 or 10 mM DG with 5 mM glucose (FIG. 6D); for relative expression of Gck mRNA: 4 hours, listed as GKA
Protocol: (§1) Hepatocytes were isolated from male Wistar rats (body wt 200-300 g) (Envigo, Bicester, UK). Procedures conformed to Home Office Regulations. The hepatocytes were suspended in Minimum Essential Medium (MEM) 21430 (Life Technologies, GIBCO BRL, Grand Island, N.Y.) with 5% (v/v) calf serum (Life Technologies, GIBCO BRL, Grand Island, N.Y.) and seeded on gelatin-coated plates. After cell attachment (˜4 hours) the medium was replaced by serum-free medium containing 5 mM glucose, 10 nM dexamethasone, 1 nM insulin and experiments were started after ˜20 hours culture by challenge with media containing 5 mM glucose, 15 mM glucose or 25 mM glucose and other additions as indicated.
(§2) Incubations for mRNA analysis and fructose 2,6-bisphosphate were for 4 hrs in MEM with 5, 15, or 25 mM glucose with or without 10 nM insulin and with or without 2 mM fructose. In samples including GKA, 10 μM GKA RO 28-1675 was added.
(§3) Incubations with 2-deoxyglucose (DG) where carried out as described previously but with 5 or 10 mM DG with 5 mM glucose (5G) and with or without 2 μM S4048.
(§4) RNA was extracted using TRIzol (Invitrogen) and cDNA was synthesized from 1 μg of RNA with MMLV (Promega). Real-time RT-PCR was performed in a total volume of 10 μl containing 50 ng of reverse transcribed RNA and 5 ng of forward and reverse primers using a Sybr-Green protocol (Promega) in a Roche Capillary Light Cycler. Relative mRNA levels (vs control) were calculated by the delta cycle threshold method.

G6pc mRNA = test: Relative G6pc mRNA expression in hepatocytes (real-time RT-PCR); conditions: for G6pc mRNA relative expression: 5 or 10 mM DG with 5 mM glucose (FIG. 6C); for relative expression of G6pc mRNA: 4 hours
Protocol: as §1, §2, §3, §4

hepatocytes [1] = test: Cell G6P / hexose 6-phosphate (H6P) determination in hepatocytes; conditions: for H6P concentration / glucose-6-phosphate concentration: hepatocytes; for H6P concentration: 5 or 10 mM DG with 5 mM glucose (FIG. 6B); for glucose-6-phosphate concentration: 2 hours, 10 nM insulin, 5, 15 or 25 mM glucose, 10 μM GKA vs glucose alone (FIG. 2B)
Protocol: as §1
Hepatocytes were incubated for 1 or 2 hours in MEM containing 10 nM insulin and 5, 15, or 25 mM glucose with or without 10μM GKA 3-cyclopentyl-2-(4-methanesulfonylphenyl)-N-thiazol-2-yl-propionamide (RO 28-1675) (Axon MedChem BV, Groningen) for determination of glucose phosphorylation (nmol/2 h per mg) and cell G6P (nmol/mg protein).
as §3
Medium containing the cultured hepatocytes was drained from cell culture plates and the plates were snap-frozen in liquid nitrogen and stored at −80° C. For H6P determination, cells were extracted in 2.5% sulphosalicylic acid for deproteinization (10,000g, 10 min) and the supernatants were then neutralized with KOH/KH^2PO4 (3 M/1 M) and metabolites assayed on the neutralized deproteinized extracts. For fructose 2,6-P2, cells were extracted in 0.15 M NaOH.
For G6P and H6P determination the assay procedure involved coupling of the dehydrogenation of G6P by glucose-6-phosphate dehydrogenase to the […] by the reduction of the molecule resazurin to resorufin by NADP measured by the […]. Standards of G6P (2 to 20 μM) were prepared in 2.5% sulphosalicylic acid and neutralized with KOH/KH2PO4 (3 M/1 M) as in samples for metabolite determination. Standards and samples (20 μl) were then assayed in a final reaction volume of 200 μI containing 50 mM triethanolamine (TEA, pH 7.6), 1.0 mM MgCl2, 100 μM NADP+, 10 μM resazurin, 0.1 U/ml G6PD, and 0.2 U/ml diaphorase. The mixtures were then incubated for 30 min at room temperature. Fluorescence at 590 nm was measured using excitation at 530 nm using a plate reader (M5E Molecular devices). Background fluorescence was corrected by subtracting the value of the no-G6P control from all sample readings and sample values were read off the linear standard curve determined from the G6P standards.
Metabolites are expressed as nmol/mg protein except for fructose 2,6-P2 which is expressed as pmol/mg of total cell protein determined by a Lowry assay.

hepatocytes [2] = test: Glucose phosphorylation in hepatocytes ([2-3H]glucose to 3H2O); conditions: 2 hours, 10 nM insulin, 5, 15 or 25 mM glucose, 10 μM GKA vs glucose alone (FIG. 2A)
Protocol: as §1

hepatocytes [3] = test: Fructose 2,6-bisphosphate determination in hepatocytes; conditions: 4 hours, GKA with 15 mM glucose vs 5 mM and 15 mM glucose alone, without or with 10 nM insulin (FIG. 3A), listed as GKA
Protocol: as §1, §2

Pklr mRNA = test: Relative Pklr mRNA expression in hepatocytes (real-time RT-PCR); conditions: 4 hours, listed as GKA
Protocol: as §1, §2, §3
RNA was extracted using TRIzol (Invitrogen) and cDNA was synthesized from 1 μg of RNA with MMLV (Promega). […] Relative mRNA levels (vs control) were calculated by the delta cycle threshold method.

Compound	Gck mRNA relative expression (Gck mRNA)	Gck mRNA relative expression (Gck mRNA; listed as 2DG)	G6pc mRNA relative expression (G6pc mRNA)	G6pc mRNA relative expression (G6pc mRNA; listed as 2DG)	H6P concentration (hepatocytes [1])	H6P concentration (hepatocytes [1]; listed as 2DG)	glucose phosphorylation (hepatocytes [2])	glucose phosphorylation (hepatocytes [2]; listed as GKA)	fructose 2,6-bisphosphate concentration (hepatocytes [3])	relative expression of Gck mRNA (Gck mRNA; 10 nM insulin, 5, 15 or 25 mM glucose, -/+ 10 μM GKA (FIG. 4A))	relative expression of Gck mRNA (Gck mRNA; GKA with 15 mM glucose vs 5 mM and 15 mM glucose alone (FIG. 3D))	relative expression of Pklr mRNA (Pklr mRNA; 10 nM insulin, 5, 15 or 25 mM glucose, -/+ 10 μM GKA (FIG. 4B))	relative expression of Pklr mRNA (Pklr mRNA; GKA with 15 mM glucose vs 5 mM and 15 mM glucose alone (FIG. 3C))	relative expression of G6pc mRNA (G6pc mRNA; 10 nM insulin, 5, 15 or 25 mM glucose, -/+ 10 μM GKA (FIG. 4C), listed as GKA)	relative expression of G6pc mRNA (G6pc mRNA; GKA with 15 mM glucose vs 5 mM and 15 mM glucose alone (FIG. 3B))	fractional increase in G6P compared with fractional increase in metabolic flux (hepatocytes [1]; basal (5 mM) and moderate (15 mM) glucose, 10 μM GKA)	glucose-6-phosphate concentration (hepatocytes [1])	glucose-6-phosphate concentration (hepatocytes [1]; listed as GKA)
O=CC[C@@H](O)[C@H](O)[C@H](O)CO [DG, 2-deoxyglucose]	repression of Gck mRNA	decrease in Gck mRNA expression	does not cause induction of expression of G6pc mRNA	does not affect G6pc mRNA relative expression	causes elevation in the cell hexose 6-phosphate (H6P) content	H6P concentration increases with increasing 2DG												
CS(=O)(=O)c1ccc(C(CC2CCCC2)C(=O)Nc2nccs2)cc1 (stereo not drawn) [RO 28-1675, 3-cyclopentyl-2-(4-methanesulfonylphenyl)-N-thiazol-2-yl-propionamide]							increased phosphorylation more than glucose alone	increases the rate of phosphorylation of glucose	increase in F-2,6-P2; also recorded: increases F-2,6-P2 more than 5 mM glucose and 15 mM glucose	represses the relative expression of Gck; also recorded: able to reduce Gck expression; also recorded: reduced the relative expression of Gck mRNA at all glucose concentrations	decrease in relative expression of Gck mRNA; also recorded: decreased relative expression of Gck mRNA	induces the expression of both G6pc and Pklr mRNA; also recorded: increased relative expression of Pklr mRNA	increase in relative expression of both Pklr and G6pc mRNA; also recorded: increased relative expression of Pklr mRNA	induces the expression of both G6pc and Pklr mRNA; also recorded: increased relative expression of Pklr mRNA and G6pc mRNA at all glucose concentrations	increase in relative expression of both Pklr and G6pc mRNA	greater	increased the concentration of G6P more than glucose alone	increases the cell concentration of G6P at all glucose concentrations
